# Data from patent US6372957B1, “Transgenic mouse comprising a MEF2 binding site operatively linked to an indicator gene and methods of use” (Board of Regents, The University of Texas System, priority 1998, dated 2002).
# Key:
# [1] = test system: GAL4-MEF2C fusion protein; test: pG5E1b-luciferase (Gal-luc) reporter with GAL-MEF2C (complete open reading frame) in cardiomyocytes; assay type: cell-based, rat; conditions: for block of activation of GAL-MEF2C by PE: cardiomyocytes stimulated with PE
# Description: FIG. 12A, FIG. 12B and FIG. 12C. CaM kinase and MAP kinase target different domains of MEF2. Primary neonatal rat cardiomyocytes in serum-free medium were transiently transfected with the indicated expression plasmids and luciferase activity was determined in cell extracts. FIG. 12A, cells were stimulated with PE (10 uM) or 10% FBS, as indicated, and expression of the MEF2-dependent reporter, 3×MEF2-luciferase, was assayed. FIG. 12B, cells transiently transfected with pG5E1b-luciferase (Gal-luc) and GAL-MEF2C were stimulated with PE, as in FIG. 12A, in the presence of KN62 or SB202190, as indicated. FIG. 12C, cells were transiently transfected with pG5E1b-luciferase and GAL-MEF2C (left panel) or GAL-MEF2C-ΔN (right panel) along with activated CaMKIV and MKK6, as indicated.
# MEF2 [2] = test: MEF2 DNA binding activity in stimulated cardiomyocytes; assay type: cell-based, rat; conditions: cardiomyocytes stimulated with PE or FBS
# [3] = test system: GAL4-MEF2C fusion protein; test: GAL4-dependent reporter with GAL4 fused to the C-terminus of MEF2C (transcription activation domains) in cardiomyocytes; assay type: cell-based; conditions: stimulation of cardiomyocytes
# From the text: FIG. 6. Phenylephrine induces MEF2C transcriptional activity through a CaMK-dependent pathway. Cardiomyocytes were transiently transfected with expression vectors encoding GAL4-MEF2C and a GAL4-dependent reporter gene in the presence and absence of PE and the CaMK inhibitor KN-93.
# In light of the ability of MEF2 to respond to calcium-dependent signal transduction pathways in T cells, the inventors have investigated whether the same pathways also activate MEF2 in cardiomyocytes. […] When the C-terminus of MEF2C, which contains the transcription activation domains (TADs), but lacks the MADS and MEF2 domains required for DNA binding and dimerization, is fused to the DNA binding domain of the yeast transcription factor GAL4, the resulting GAL4-MEF2C fusion protein retains sensitivity to calcineurin and CaMKIV (FIG. 5). This GAL4-MEF2C fusion protein is also activated by stimulation of cardiomyocytes with the hypertrophic agonist phenylephrine (PE) (FIG. 6).
# MEF2 [4] = test: 3×MEF2-luciferase MEF2-dependent reporter in transiently transfected primary neonatal rat cardiomyocytes; assay type: cell-based
# From the text: To determine whether MEF2 was a target for hypertrophic signaling in cardiomyocytes, the inventors tested whether hypertrophy in response to phenylephrine (PE) and fetal bovine serum (FBS) activated a MEF2-dependent reporter (3×MEF2-luciferase), containing three MEF2 binding sites.
SMILES,block of activation of GAL-MEF2C by PE [1],amount of MEF2 DNA binding activity (MEF2 [2]),"activity of GAL4-MEF2C fusion protein (complete open reading frame of MEF2C) ([1]; cardiomyocytes, PE or FBS)",activation of GAL4-MEF2C fusion protein (C-terminus of MEF2C) [3],"activation of a reporter containing a mutant MEF2 site (MEF2 [4]; cardiomyocytes, PE or FBS)","activation of MEF2-dependent reporter (3×MEF2-luciferase) (MEF2 [4]; primary neonatal rat cardiomyocytes, serum-free medium, PE 10 uM or 10% FBS)"
CN([C@@H](Cc1ccc(OS(=O)(=O)c2cccc3cnccc23)cc1)C(=O)N1CCN(c2ccccc2)CC1)S(=O)(=O)c1cccc2cnccc12 [KN62],partially blocked,,,,,
"CNC[C@H](O)c1cccc(O)c1 [PE, phenylephrine]",,unchanged,stimulated activity,activated,not a reporter containing a mutant MEF2 site,stimulated the MEF2 reporter
Oc1ccc(-c2nc(-c3ccncc3)c(-c3ccc(F)cc3)[nH]2)cc1 [SB202190],partially blocked,,,,,
